The source of these data is patent US20230295201A1 (Gilead Sciences, Inc., priority 2020, published 2023).

SMILES strings stand for the structures. pEC50: −log10 of the molar value. Read-outs that look alike come from different tables or passages of the source. Where only a bound is given, the exact number is not on record here.

Holding throughout (type): cell-based
Assay [1] concerns HRV16. The assay can be described thus: HRV16 HELA EC50 (cytopathic effect in H1-HeLa cells). The method in brief:
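H1-HeLa cells seeded one day before, given 3-fold serial compound dilutions in triplicate just prior to infection with pre-titrated virus. Incubated 96 h at 33 °C/5% CO2; protection from cytopathic effect read as viability by CellTiter-Glo luminescence, normalised to infected untreated (0%) and uninfected (100%) controls.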
A general note: Protection from cytopathic effect is a common read-out in antiviral testing.

The test system of assay [2] is RSV A2. As to the kind of experiment: RSV NHBE EC50 (RSV A2 antiviral assay in normal human bronchial epithelial cells). Particulars: NHBE cells, RSV A2, 4 days, read-out: RSV NHBE EC50.
Assay [3] relates to RSV strain A2. As to the kind of experiment: RSV HEp-2 EC50 (infectious cytopathic cell protection assay). Particulars: HEp-2 cells, RSV A2, 4 days, read-out: RSV HEp-2 EC50. The method, boiled down:
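HEp-2 cells mixed with titered RSV A2 at 50,000 cells/ml were added to plates holding 3-fold serial compound dilutions in DMSO, then incubated 4 days at 37° C. Cytoprotection was read as cell viability by CellTiter-Glo luminescence and converted to percent inhibition against 0% and 100% inhibition controls.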

Assay [4] relates to DENV2 replicon. The assay can be described thus: DENV-2 Huh-7 Rep EC50 (replicon luminescence). Particulars: read-out: DENV-2 Huh-7 Rep EC50. The method, boiled down:
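Huh-7 cells carrying a DENV2 replicon, 5,000 cells/well, were incubated with dosed compounds for 48 h at 37° C. EnduRen live-cell substrate was added 1.5 h before luminescence reading. EC50 came from dose-response against DMSO-only wells.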
In general terms: A replicon is a self-replicating genome or part of one, used to study replication in cells.

[5] abbreviates: 96 h, H1-HeLa cells, 33° C., read-out: HRV16 HELA EC50.
Where [6] appears, read: human respiratory syncytial virus, NHBE, 96 h.
The mark [7] stands for this setting: human respiratory syncytial virus, HEp-2, 96 h.
[8] abbreviates: Dengue virus, DENV2, Huh-7, 48 h, Huh-7 replicon cells, 48 hours.
Setting [9] is: H1-HeLa cells, 96 h, 33° C.; read-out: HRV16 HELA EC50.
Setting [10] is: human respiratory syncytial virus, 96 h.
Where [11] appears, read: Dengue virus, DENV2, Huh-7, 48 h.

By pEC50 is commonly meant the negative decadic logarithm of the EC50, by convention in mol/L. In the case of `CCC(CC)OC(=O)[C@H](C)NP(=O)(OC[C@@]1(C#N)O[C@@H](c2ccc3c(N)ncnn23)[C@H](O)[C@@H]1O)Oc1ccccc1` (stereo partly drawn) [Example 101, (2S)-pentan-3-yl 2-(((((2R,3S,4R,5S)-5-(4-aminopyrrolo[2,1-f][1,2,4]triazin-7-yl)-2-cyano-3,4-dihydroxytetrahydrofuran-2-yl)methoxy)(phenoxy)phosphoryl)amino)propanoate], the pEC50 in assay [1] (setting [5]) was 5.50; in assay [2] (setting [6]), 5.91; in assay [3] (setting [7]) it was 5.76; in assay [4] (setting [8]), below 4.00.
With `CCCCCCOC(=O)[C@H](C)NP(=O)(OC[C@@]1(C#N)O[C@@H](c2ccc3c(N)ncnn23)[C@H](O)[C@@H]1O)Oc1ccccc1` (stereo partly drawn) [Example 192, hexyl ((((2R,3S,4R,5S)-5-(4-aminopyrrolo[2,1-f][1,2,4]triazin-7-yl)-2-cyano-3,4-dihydroxytetrahydrofuran-2-yl)methoxy)(phenoxy)phosphoryl)-L-alaninate], the pEC50 in assay [1] (setting [5]) was 6.47; in assay [2] (setting [6]) it was 7.68; in assay [3] (setting [7]), 6.71; in assay [4] (setting [8]) it was 4.80.
Take `CCC(CC)COC(=O)[C@@H](C)NP(=O)(OC[C@@]1(C#N)O[C@@H](c2ccc3c(N)ncnn23)[C@H](O)[C@@H]1O)Oc1ccccc1` (stereo partly drawn) [Example 82, (2R)-2-ethylbutyl 2-(((((2R,3S,4R,5S)-5-(4-aminopyrrolo[2,1-f][1,2,4]triazin-7-yl)-2-cyano-3,4-dihydroxytetrahydrofuran-2-yl)methoxy)(phenoxy)phosphoryl)amino)propanoate]: the negative logarithm of the EC50 (pEC50) in assay [1] (setting [5]) was 5.03; in assay [2] (setting [6]) it was 5.52; in assay [3] (setting [7]), 5.60; in assay [4] (setting [8]) it was below 4.30.
With `C[C@H](N[P@](=O)(OC[C@@]1(C#N)O[C@@H](c2ccc3c(N)ncnn23)[C@H](O)[C@@H]1O)Oc1ccccc1)C(=O)O[C@H]1CC[C@H](C(F)(F)F)CC1` (single isomer, unassigned) [Example 18], the pEC50 is 6.67 in assay [1] (setting [5]), 7.04 in assay [2] (setting [6]), 6.94 in assay [3] (setting [7]) and 4.91 in assay [4] (setting [8]).
For `CCOC(=O)[C@H](C)N[P@](=O)(OC[C@@]1(C#N)O[C@@H](c2ccc3c(N)ncnn23)[C@H](O)[C@@H]1O)Oc1ccccc1` [Example 29, Ethyl ((S)-(((2R,3S,4R,5S)-5-(4-aminopyrrolo[2,1-f][1,2,4]triazin-7-yl)-2-cyano-3,4-dihydroxytetrahydrofuran-2-yl)methoxy)(phenoxy)phosphoryl)-L-alaninate], in that order: 6.17, 6.03, 7.04 and 4.44.
On to `C[C@H](NP(=O)(OC[C@@]1(C#N)O[C@@H](c2ccc3c(N)ncnn23)[C@H](O)[C@@H]1O)Oc1ccccc1)C(=O)OCCC(C)(C)C` (single isomer, unassigned) [Example 252], for which the negative logarithm of the EC50 (pEC50) in assay [2] was 7.51; in assay [3] (setting [7]), 7.59; in assay [4] (Huh-7 replicon cells, 48 hours) it was 5.16.
Take `C[C@H](N[P@](=O)(OC[C@@]1(C#N)O[C@@H](c2ccc3c(N)ncnn23)[C@H](O)[C@@H]1O)Oc1ccccc1)C(=O)OC1CCCCC1` (single isomer, unassigned) [Example 6]: the pEC50 in assay [1] (setting [5]) is 6.64; in assay [2] (setting [6]) it was 6.91; in assay [3] (setting [7]), 7.06; in assay [4] (setting [8]), 5.53.
As to `CCCCCCCCCCCCCCCCCCOC[C@H](COP(=O)(O)OC[C@@]1(C#N)O[C@@H](c2ccc3c(N)ncnn23)[C@H](O)[C@@H]1O)OCc1ccccc1` [Example 96, ((2R,3S,4R,5S)-5-(4-aminopyrrolo[2,1-f][1,2,4]triazin-7-yl)-2-cyano-3,4-dihydroxytetrahydrofuran-2-yl)methyl ((R)-2-(benzyloxy)-3-(octadecyloxy)propyl) hydrogen phosphate], the pEC50 in assay [1] (setting [9]) is 5.03; in assay [2] (setting [10]), 6.36; in assay [3] (setting [10]) it was 6.60; in assay [4] (setting [11]) it was below 4.00.
As for `CC(C)OC(=O)[C@H](C)NP(=O)(OC[C@@]1(C#N)O[C@@H](c2ccc3c(N)ncnn23)[C@H](O)[C@@H]1O)Oc1ccccc1` (mixture of isomers) [Example 77, Isopropyl ((((2R,3S,4R,5S)-5-(4-aminopyrrolo[2,1-f][1,2,4]triazin-7-yl)-2-cyano-3,4-dihydroxytetrahydrofuran-2-yl)methoxy)(phenoxy)phosphoryl)-L-alaninate], the pEC50 in assay [1] (setting [5]) was 5.85; in assay [2] (setting [6]) it was 5.94; in assay [3] (setting [7]), 6.33; in assay [4] (setting [8]) it was 4.30.
As to `CCCCCCCCCCCCCCCCOCCCOP(=O)(O)OC[C@@]1(C#N)O[C@@H](c2ccc3c(N)ncnn23)[C@H](O)[C@@H]1O` [Example 149, ((2R,3S,4R,5S)-5-(4-aminopyrrolo[2,1-f][1,2,4]triazin-7-yl)-2-cyano-3,4-dihydroxytetrahydrofuran-2-yl)methyl (3-(hexadecyloxy)propyl) hydrogen phosphate], the negative logarithm of the EC50 (pEC50) in assay [1] (setting [9]) is below 4.30; in assay [2] (setting [10]), below 6.05; in assay [3] (setting [10]), 6.03; in assay [4] (setting [11]), below 4.30.
Take `C[C@H](NP(=O)(OC[C@@]1(C#N)O[C@@H](c2ccc3c(N)ncnn23)[C@H](O)[C@@H]1O)Oc1ccccc1)C(=O)OC1CCCCC1` (stereo partly drawn) [Example 4, (2S)-cyclohexyl 2-(((((2R,3S,4R,5S)-5-(4-aminopyrrolo[2,1-f][1,2,4]triazin-7-yl)-2-cyano-3,4-dihydroxytetrahydrofuran-2-yl)methoxy)(phenoxy)phosphoryl)amino)propanoate]: the pEC50 in assay [1] (setting [5]) was 6.29; in assay [2] (setting [6]) it was 7.12; in assay [3] (setting [7]), 7.02.
In the case of `C[C@H](NP(=O)(OC[C@@]1(C#N)O[C@@H](c2ccc3c(N)ncnn23)[C@H](O)[C@@H]1O)Oc1ccccc1)C(=O)OCCC(C)(C)C` (stereo partly drawn) [Example 251, 3,3-dimethylbutyl ((((2R,3S,4R,5S)-5-(4-aminopyrrolo[2,1-f][1,2,4]triazin-7-yl)-2-cyano-3,4-dihydroxytetrahydrofuran-2-yl)methoxy)(phenoxy)phosphoryl)-L-alaninate], the figures for the pEC50 in assay [3] (setting [7]) and in assay [4] (setting [8]) were 8.10 and 5.45, respectively.
Consider `CCC(C)(C)COC(=O)[C@H](C)NP(=O)(OC[C@@]1(C#N)O[C@@H](c2ccc3c(N)ncnn23)[C@H](O)[C@@H]1O)Oc1ccccc1` (stereo partly drawn) [Example 254, 2,2-dimethylbutyl ((((2R,3S,4R,5S)-5-(4-aminopyrrolo[2,1-f][1,2,4]triazin-7-yl)-2-cyano-3,4-dihydroxytetrahydrofuran-2-yl)methoxy)(phenoxy)phosphoryl)-L-alaninate], for which the pEC50 in assay [2] (setting [6]) was 7.34; in assay [3] (setting [7]), 7.77; in assay [4] (setting [8]), 4.89.
For `C[C@H](NP(=O)(OC[C@@]1(C#N)O[C@@H](c2ccc3c(N)ncnn23)[C@H](O)[C@@H]1O)Oc1ccccc1)C(=O)OCCC(C)(C)C` (single isomer, unassigned) [Example 253], the pEC50 in assay [2] was 7.15; in assay [3] it was 7.70; in assay [4] (Huh-7 replicon cells, 48 hours) it was 5.56.
As to `C[C@H](NP(=O)(OC[C@@]1(C#N)O[C@@H](c2ccc3c(N)ncnn23)[C@H](O)[C@@H]1O)Oc1ccccc1)C(=O)OCC(C)(C)C` (stereo partly drawn) [Example 92, (2S)-neopentyl 2-(((((2R,3S,4R,5S)-5-(4-aminopyrrolo[2,1-f][1,2,4]triazin-7-yl)-2-cyano-3,4-dihydroxytetrahydrofuran-2-yl)methoxy)(phenoxy)phosphoryl)amino)propanoate], the results for the negative-log EC50 (pEC50) in assay [1] (setting [5]), in assay [2] (setting [6]) and in assay [3] (setting [7]) were 6.65, 7.14 and 7.19, respectively.
